The NIST ThermoML archive (doi:10.1016/j.fluid.2018.07.015)

Experiment: xn = mol fraction of the nth substance listed
Details: 101 kPa, Liquid, Vibrating tube method

C=O [methanal] + O
mass density [kg/m3]
Details	x1 = 0.0545	x1 = 0.05456	x1 = 0.09849	x1 = 0.1544	x1 = 0.2019	x1 = 0.2573
291.15 K	–	1025.9	1045.9	1070.2	1091.8	1112.8
298.15 K	1024.6	–	1044.7	1069.9	1089.4	1111.3
313.15 K	1019.6	–	1039.7	1066.9	1086.8	1109.9
